Data from patent US20150344540A1, “NOVEL GLP-1 RECEPTOR AGONISTS WITH CHOLESTEROL EFFLUX ACTIVITY” (NOVO NORDISK A/S, priority 2012, published 2015).
Read-outs that look alike come from different tables or passages of the source. Where a SMILES comes first, the peptide text is derived from it. [ ]: non-standard residue; d: D form. Aib = CC(C)(N)C(=O)O

Experiments:
[1] = test system: Mouse monocyte/macrophage cell line, RAW 264.7; test: Cholesterol efflux assay (3H-cholesterol, macrophage cell line); format: cell-based; settings: RAW 264.7, 4 hrs incubation, 0.1% human serum albumin, ABCA1-mediated efflux
human GLP-1 receptor = human GLP-1 receptor (Homo sapiens, UniProt P43220); test: Functional GLP-1 receptor assay, in vitro potency (CRE luciferase; whole cells); format: cell-based; settings: BHK cells expressing human GLP-1 receptor
human GLP-1 receptor, sequence (P43220 24-463): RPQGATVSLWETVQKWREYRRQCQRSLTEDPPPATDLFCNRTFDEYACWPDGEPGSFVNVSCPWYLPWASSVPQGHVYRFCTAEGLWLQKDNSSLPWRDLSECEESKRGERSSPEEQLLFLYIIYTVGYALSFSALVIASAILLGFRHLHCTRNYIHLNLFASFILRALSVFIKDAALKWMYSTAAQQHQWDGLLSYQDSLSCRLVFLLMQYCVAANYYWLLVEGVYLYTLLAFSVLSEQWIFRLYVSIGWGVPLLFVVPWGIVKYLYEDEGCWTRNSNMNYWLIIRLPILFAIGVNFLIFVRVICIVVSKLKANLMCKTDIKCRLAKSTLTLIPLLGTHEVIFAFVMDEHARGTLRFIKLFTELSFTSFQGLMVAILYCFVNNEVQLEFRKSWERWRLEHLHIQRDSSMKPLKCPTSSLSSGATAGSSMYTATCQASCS

[2] = Pharmacokinetics in mini-pigs after i.v. administration; settings: female, Göttingen, minipig, plasma, iv, 5 nmol/kg
Excerpt: The aim of the study is to assess the pharmacokinetic properties of the compounds of the invention, in mini-pigs.
Göttingen mini-pigs female, 15-20 kg, purchased from Ellegaard Mini-pigs, Denmark, were housed in the Animal Unit, Novo Nordisk A/S and were kept and handled according to normal procedure in the Animal Unit. After minimum 2 weeks of acclimatization two permanent central venous catheters were implemented in vena cava caudalis in each animal. After surgery the animals were in their normal individual pens during the pharmacokinetic experiments.
Intravenous injections were given through the central short catheter, which was flushed with min 10 ml of sterile saline post administration. The test substance was dosed at 5 nmol/kg, N=3, in a volume of 0.05 ml/kg.
On day 1 the catheters are coupled to extension tubes, which will be removed at the end of day 1.
Samples were kept on wet ice until centrifugation (10 min, 4° C., 1942 g). Afterwards, plasma (min. 100 μl) was transferred immediately to Micronic tubes and kept at −20° C. until analysis. The plasma samples were analysed by an immunoaasay described below.
The plasma concentrations of the peptides with intact N-terminus were determined using a Luminescence Oxygen Chanelling Immuno-assay (LOCI). The donor beads were coated with streptavidin, while acceptor beads were conjugated with a monoclonal antibody recognizing a mid-/C-terminal epitope of the peptide. The other monoclonal antibody, specific for the N-terminus, was biotinylated. The three reactants were combined with the analyte and formed a two-sited immuno-complex. Illumination of the complex released singlet oxygen atoms from the donor beads, which were channeled into the acceptor beads and triggered chemi-luminescence which was measured in an Envision plate reader. The amount of light was proportional to the concentration of the compound.
Plasma concentration-time profiles was analysed by a non-compartmental pharmacokinetics analysis using Phoenix (Pharsight Inc., Mountain View, Calif., USA). Calculations were performed using individual concentration-time values from each animal.

[3] = 0% HSA, read-out: GLP1R CRE luc 0% HSA EC50 Mean Value
[4] = GLP1R CRE luc 1% HSA EC50 Mean Value, 1% HSA
[5] = T1/2 Mean Value, Göttingen mini-pigs, N=3

EC50 (human GLP-1 receptor; [3]) [nM]	EC50 (human GLP-1 receptor; [4]) [nM]	C0 [2] [nM]	Vd [2] [L/kg]	clearance [2] [mL/h/kg]	half-life [2, 5] [h]	half-life ([2]; T1/2, mini-pigs) [h]	Compound	4 h Cholesterol Efflux Emax [1] [%]
0.015	0.004	115	0.0613	54.9	0.8		CC[C@H](C)[C@H](NC(=O)[C@H](Cc1ccccc1)NC(=O)[C@H](CCC(=O)O)NC(=O)[C@H](CCCCN)NC(=O)[C@@H](NC(=O)[C@H](C)NC(=O)[C@H](CCC(=O)O)NC(=O)CNC(=O)[C@H](CCC(=O)O)NC(=O)[C@H](CC(C)C)NC(=O)[C@H](Cc1ccc(O)cc1)NC(=O)[C@H](CO)NC(=O)[C@H](CO)NC(=O)[C@@H](NC(=O)[C@H](CC(=O)O)NC(=O)[C@H](CO)NC(=O)[C@@H](NC(=O)[C@H](Cc1ccccc1)NC(=O)[C@@H](NC(=O)CNC(=O)[C@H](CCC(=O)O)NC(=O)C(C)(C)NC(=O)[C@@H](N)Cc1c[nH]cn1)[C@@H](C)O)[C@@H](C)O)C(C)C)C(C)C)C(=O)N[C@@H](C)C(=O)N[C@@H](Cc1c[nH]c2ccccc12)C(=O)N[C@@H](CC(C)C)C(=O)N[C@H](C(=O)N[C@@H](CCC(=O)O)C(=O)N[C@@H](CCCCN)C(=O)NC(C)(C)C(=O)N[C@@H](CCCCN)C(N)=O)C(C)C [Compound 11, [Aib8,Glu23,Val25,Glu34,Lys35,Aib36,Lys37]-GLP-1-(7-37)-peptide amide] (H-H[Aib]EGTFTSDVSSYLEGEAVKEFIAWLVEK[Aib]K-NH2)	135
0.045	0.015	85.5	0.0743	6.3	8.3		CC[C@H](C)[C@H](NC(=O)[C@H](Cc1ccccc1)NC(=O)[C@H](CCC(=O)O)NC(=O)[C@H](CCCCN)NC(=O)[C@H](C)NC(=O)[C@H](C)NC(=O)[C@H](CCC(N)=O)NC(=O)CNC(=O)[C@H](CCC(=O)O)NC(=O)[C@H](CC(C)C)NC(=O)[C@H](Cc1ccc(O)cc1)NC(=O)[C@H](CO)NC(=O)[C@H](CO)NC(=O)[C@@H](NC(=O)[C@H](CC(=O)O)NC(=O)[C@H](CO)NC(=O)[C@@H](NC(=O)[C@H](Cc1ccccc1)NC(=O)[C@@H](NC(=O)CNC(=O)[C@H](CCC(=O)O)NC(=O)C(C)(C)NC(=O)[C@@H](N)Cc1c[nH]cn1)[C@@H](C)O)[C@@H](C)O)C(C)C)C(=O)N[C@@H](C)C(=O)N[C@@H](Cc1c[nH]c2ccccc12)C(=O)N[C@@H](CC(C)C)C(=O)N[C@H](C(=O)N[C@@H](CCCCN)C(=O)N[C@@H](CCCCN)C(=O)NC(C)(C)C(=O)NCC(=O)N[C@@H](CCC(=O)O)C(=O)N[C@@H](Cc1ccccc1)C(=O)N[C@@H](CC(C)C)C(N)=O)C(C)C [Compound 48]	71
0.163		79.7	0.152	3.09	32.9	32.8	CC[C@H](C)[C@H](NC(=O)[C@H](Cc1ccccc1)NC(=O)[C@H](CCC(=O)O)NC(=O)[C@H](CCCCN)NC(=O)[C@H](C)NC(=O)[C@H](C)NC(=O)[C@H](CCC(=O)O)NC(=O)CNC(=O)[C@H](CCC(=O)O)NC(=O)[C@H](CC(C)C)NC(=O)[C@H](Cc1ccc(O)cc1)NC(=O)[C@H](CO)NC(=O)[C@H](CO)NC(=O)[C@@H](NC(=O)[C@H](CC(=O)O)NC(=O)[C@H](CO)NC(=O)[C@@H](NC(=O)[C@H](Cc1ccccc1)NC(=O)[C@@H](NC(=O)CNC(=O)[C@H](CCC(=O)O)NC(=O)C(C)(C)NC(=O)[C@@H](N)Cc1c[nH]cn1)[C@@H](C)O)[C@@H](C)O)C(C)C)C(=O)N[C@@H](C)C(=O)N[C@@H](Cc1c[nH]c2ccccc12)C(=O)N[C@@H](CC(C)C)C(=O)N[C@H](C(=O)N[C@@H](CCC(=O)O)C(=O)N[C@@H](CCCCN)C(=O)NC(C)(C)C(=O)N[C@@H](CCCCN)C(=O)N[C@@H](CCC(=O)O)C(=O)N[C@@H](Cc1ccccc1)C(=O)N[C@@H](CC(C)C)C(N)=O)C(C)C [Compound 8, [Aib8,Glu23,Glu34,Lys35,Aib36,Lys37]-GLP-1-(7-37)-peptidyl-Glu-Phe-Leu amide] (H-H[Aib]EGTFTSDVSSYLEGEAAKEFIAWLVEK[Aib]KEFL-NH2)	100
0.022	0.015	50.6	0.0654	2.66	16.7		CC[C@H](C)[C@H](NC(=O)[C@H](Cc1ccccc1)NC(=O)[C@H](CCC(=O)O)NC(=O)[C@H](CCCCN)NC(=O)[C@@H](NC(=O)[C@H](C)NC(=O)[C@H](CCC(=O)O)NC(=O)CNC(=O)[C@H](CCC(=O)O)NC(=O)[C@H](CC(C)C)NC(=O)[C@H](Cc1ccc(O)cc1)NC(=O)[C@H](CO)NC(=O)[C@H](CO)NC(=O)[C@@H](NC(=O)[C@H](CC(=O)O)NC(=O)[C@H](CO)NC(=O)[C@@H](NC(=O)[C@H](Cc1ccccc1)NC(=O)[C@@H](NC(=O)CNC(=O)[C@H](CCC(=O)O)NC(=O)C(C)(C)NC(=O)[C@@H](N)Cc1c[nH]cn1)[C@@H](C)O)[C@@H](C)O)C(C)C)C(C)C)C(=O)N[C@@H](C)C(=O)N[C@@H](Cc1c[nH]c2ccccc12)C(=O)N[C@@H](CC(C)C)C(=O)N[C@H](C(=O)N[C@@H](CCC(=O)O)C(=O)N[C@@H](CCCCN)C(=O)NC(C)(C)C(=O)N[C@@H](CCCCN)C(=O)N[C@@H](CCC(=O)O)C(=O)N[C@@H](Cc1ccccc1)C(N)=O)C(C)C [Compound 62, [Aib8,Glu23,Val25,Glu34,Lys35,Aib36,Lys37]-GLP-1-(7-37)-peptidyl-Glu-Phe amide] (H-H[Aib]EGTFTSDVSSYLEGEAVKEFIAWLVEK[Aib]KEF-NH2)	111
	0.111	86.9	0.0879	2.41	25.2		CC[C@H](C)[C@H](NC(=O)[C@H](Cc1ccccc1)NC(=O)[C@H](CCC(=O)O)NC(=O)[C@H](CCCCN)NC(=O)[C@@H](NC(=O)[C@H](CCCCN)NC(=O)[C@H](CCC(=O)O)NC(=O)CNC(=O)[C@H](CCC(=O)O)NC(=O)[C@H](CC(C)C)NC(=O)[C@H](Cc1ccc(O)cc1)NC(=O)[C@H](CO)NC(=O)[C@H](CO)NC(=O)[C@@H](NC(=O)[C@H](CC(=O)O)NC(=O)[C@H](CO)NC(=O)[C@@H](NC(=O)[C@H](Cc1ccccc1)NC(=O)[C@@H](NC(=O)CNC(=O)[C@H](CCC(=O)O)NC(=O)C(C)(C)NC(=O)[C@@H](N)Cc1c[nH]cn1)[C@@H](C)O)[C@@H](C)O)C(C)C)C(C)C)C(=O)N[C@@H](C)C(=O)N[C@@H](Cc1c[nH]c2ccccc12)C(=O)N[C@@H](CC(C)C)C(=O)N[C@H](C(=O)N[C@@H](CCC(=O)O)C(=O)NCC(=O)NC(C)(C)C(=O)N[C@@H](CCCCN)C(=O)N[C@@H](CCC(=O)O)C(=O)N[C@@H](Cc1ccccc1)C(=O)N[C@@H](CC(C)C)C(N)=O)C(C)C [Compound 64, [Aib8,Glu23,Lys24,Val25,Glu34,Aib36,Lys37]-GLP-1-(7-37)-peptidyl-Glu-Phe-Leu amide] (H-H[Aib]EGTFTSDVSSYLEGEKVKEFIAWLVEG[Aib]KEFL-NH2)	100
0.077	0.025	155	0.0958	3.47	19		CC[C@H](C)[C@H](NC(=O)[C@H](Cc1ccccc1)NC(=O)[C@H](CCC(=O)O)NC(=O)[C@H](CCCCN)NC(=O)[C@@H](NC(=O)[C@H](C)NC(=O)[C@H](CCC(=O)O)NC(=O)CNC(=O)[C@H](CCC(=O)O)NC(=O)[C@H](CC(C)C)NC(=O)[C@H](Cc1ccc(O)cc1)NC(=O)[C@H](CO)NC(=O)[C@H](CO)NC(=O)[C@@H](NC(=O)[C@H](CC(=O)O)NC(=O)[C@H](CO)NC(=O)[C@@H](NC(=O)[C@H](Cc1ccccc1)NC(=O)[C@@H](NC(=O)CNC(=O)[C@H](CCC(=O)O)NC(=O)C(C)(C)NC(=O)[C@@H](N)Cc1c[nH]cn1)[C@@H](C)O)[C@@H](C)O)C(C)C)C(C)C)C(=O)N[C@@H](CCC(N)=O)C(=O)N[C@@H](Cc1c[nH]cn1)C(=O)N[C@@H](CC(C)C)C(=O)N[C@H](C(=O)N[C@@H](CCC(=O)O)C(=O)N[C@@H](CCCCN)C(=O)N[C@@H](CC(C)C)C(=O)N[C@@H](CCCCN)C(=O)N[C@@H](CCC(=O)O)C(=O)N[C@@H](Cc1ccccc1)C(=O)N[C@@H](CC(C)C)C(N)=O)C(C)C [Compound 87, [Aib8,Glu23,Val25,Gln30,His31,Glu34,Lys35,Leu36,Lys37]-GLP-1-(7-37)-peptidyl-Glu-Phe-Leu amide] (H-H[Aib]EGTFTSDVSSYLEGEAVKEFIQHLVEKLKEFL-NH2)	121
